Test results from patent US4389412A, “Substituted cyclopropanecarboxylic acid esters and pesticidal compositions containing the same as active ingredient” (priority 1979, dated 1983).
Like-named read-outs stand apart in the source and are kept apart here.

Experiments:
[1] = system: green rice leafhoppers (Nephotettix cincticeps Uhler); assay: Mortality test with green rice leafhoppers by topical application method; conditions: Nephotettix cincticeps, in Oryza sativa, 24 h
Description: Mortality test with green rice leafhoppers (Nephotettix cincticeps Uhler) by topical application method
Then, the insects were kept at 25° C. with access to rice plant seedlings. The insects were used in groups of 15 individuals each.

[2] = system: rice stem borers (Chilo suppressalis Walker); assay: Mortality test with rice stem borers by topical application method; format: in vivo; conditions: 24 h
Description: Mortality test with rice stem borers (Chilo suppressalis Walker) by topical application method
Using a microsyringe, 0.5 μl of the above solution was applied to the thoracic abdominal region of each final-instar larva of rice stem borer (Chilo suppressalis Walker). […] The test larvae were used in groups of 20 individuals each.

[3] = system: tobacco cutworms (Prodenia litura Fabricius); assay: Mortality test with tobacco cutworms by topical application method; format: in vivo; conditions: 24 h
Description: Mortality test with tobacco cutworms (Prodenia litura Fabricius) by topical application method
Using a microsyringe, 0.5 μl of the above solution was dripped onto the thoracic adbominal region of each of 3-instar tobacco cutworm (Prodenia litura Fabricius) larvae. […] The test larvae were used in groups of 20 individuals each.

[4] = system: two-spotted spider mites (Tetranychus urticae Koch); assay: Mortality test with two-spotted spider mites by spray application method; format: in vivo; conditions: 48 h, 200 ppm spray, two days, read-out: Percent decrease of population (%)
Description: Mortality test with two-spotted spider mites (Tetranychus urticae Koch) by spray application method
To a 5% aqueous solution of acetone was added dropwise a small amount of Tween-20 (polyethylene sorbitan monolaurate) as a surfactant. […] From 30 to 50 adult two-spotted spider mites (Tetranychus urticae Koch) were released on the leaves of kidney-bean plants in the dicotyledonous stage in a pot 9 cm in diameter, followed by a spray application of the above solution. The pot was kept in a constant-temperature chamber at 26° C. and two days later the mites were examined for deaths. The percent decrease of population was then calculated.

[5] = Fish toxicity test with killifish; format: in vivo, Orizias latipes; conditions: water, killifish, 25±1° C., read-out: TLm (48 hrs.)
Description: (§1) Fish toxicity test with killifish (Orizias latipes)
(§2) An acetone solution of one of the test compounds as mentioned in Table 8 was prepared by adding said test compound to 15 ml of acetone. To 10 liters of water was added a predetermined amount of the above acetone solution and the mixture was stirred thoroughly to prepare an aqueous solution containing the test compound in a predetermined concentration. This was used as a test water. After the each test water was moderately aerated, ten killifishes (Orizias latipes) with a body weight of about 0.25 g and a body length of about 2.5 cm were released into said each test water which was maintained at 25±1° C. After 48 hours, the test fish was examined for death. The TLm (median tolerance limit, ppm) was determined.

[6] = system: killifish (Orizias latipes); assay: Fish toxicity test with killifish; format: in vivo; conditions: Table 1; 48 hrs.
Description: as §1, §2

[7] = Fish toxicity test with guppies; format: in vivo, Lebistes reticulatus; conditions: guppy, water, guppies, 20° C., read-out: TLm (48 hrs.)
Outline: (§3)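 Ten female guppies, 3–4 months old, held at 20 °C in water containing surfactant and test compound added in acetone solution. TLm (median tolerance limit, ppm) determined.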

[8] = system: guppies (Lebistes reticulatus); assay: Fish toxicity test with guppies; format: in vivo; conditions: Table 1; 48 hrs.
Outline: as §3

[9] = Acute toxicity test in rat by the oral route; format: in vivo; conditions: in vivo, male rat, in olive oil, after 7 days
From the text: (§4) Acute toxicity test in rat by the oral route

rat = assay: Acute toxicity test in rat by the oral route; format: in vivo; conditions: Table 1, rat, 10080 min
From the text: as §4

[10] = system: green rice leafhoppers (Nephotettix cincticeps Uhler); assay: Utility Example-2: spray on rice plants, green rice leafhoppers; format: in vivo; conditions: 7 ml/pot, 24 hours
Description: A 30% emulsifiable concentrate of each of the cis- and trans-isomers and a 50:50 mixture of the cis- and trans-isomers of Compound (1) and Compound (2) as prepared by the procedure described in Formulation Example-1 was diluted with water to a concentration of 80 ppm as active compound. Rice plants 4 weeks after sowing in pots (each pot 6 cm in diameter, 7 seedlings) were sprayed with the above solution at the rate of 7 ml/pot and, after drying in the air, each pot was covered with a wire-mesh cage. Then, 20 female adult green rice leafhoppers (Nephotettix cincticeps Uhler) were released into the cage. The caged pots were kept in a constant-temperature chamber at 25° C. […] In all groups, the mortality values were not less than 90%.

[11] = system: small brown planthoppers (Laodelphax striatellus Fallen); assay: Utility Example-3: spray on rice plants, small brown planthoppers; format: in vivo; conditions: 7 ml/pot, 24 hours
Description: A 30% emulsifiable concentrate of each of the cis- and trans-isomers and a 50:50 mixture of the cis- and trans-isomers of Compound (1) and of Compound (2) as prepared by the procedure described in Formulation Example-1 was diluted with water to a concentration of 80 ppm as active compound. Rice plants 4 weeks after sowing in pots (each pot 6 cm in diameter, 7 seedlings) were sprayed with the above diluted solution at the rate of 7 ml/pot and, after drying in the air, each pot was covered with a wire-mesh cage. Then, 30 adult small brown planthoppers (Laodelphax striatellus Fallen) were released into the cage. The pots were kept in a constant-temperature chamber at 25° C. […] In all groups, the mortality was not less than 90%.

[12] = system: green rice leafhoppers (Nephotettix cincticeps Uhler); assay: Utility Example-4: 0.2% dust on rice seedlings, green rice leafhoppers; format: in vivo; conditions: 5 kg per 10 ares, 24 hours, resistant to organophosphorus and carbamate pesticides
From the text: (§5) A 0.2% dust preparation of each of the cis- and trans-isomers and a 50:50 mixture of the cis- and trans-isomers of Compound (1) and of Compound (2) as prepared by the procedure described in Formulation Example-3 was applied to rice seedlings by means of a bell-jar duster at the rate of 5 kg per 10 ares. […] In all cases, the mortality was not less than 90%.

[13] = system: tobacco cutworm (Prodenia litura); assay: Utility Example-5: spray on soy bean leaves, tobacco cutworm larvae; format: in vivo; conditions: 48 h; 13 ppm; 2 days
Description: An acetone solution of one of the test compounds as mentioned in Table 13 and Tween-20 (the same surfactant as mentioned hereinbefore) was prepared. This acetone solution was diluted with water to prepare a solution containing the test compound in a predetermined concentration. Leaves of soy bean in pots were sprayed with the above diluted solution at the rate of 20 ml/pot and, after one day, ten 3-instar larvae of tobacco cutworm (Prodenia litura) were released on the leaves. The pots were kept in a constant-temperature chamber at 25° C.

[14] = system: green rice leafhoppers (Nephotettix cincticeps); assay: Utility Example-6: 0.5% dust on rice seedlings, green rice leafhoppers; format: in vivo; conditions: 1 kg per 10 ares, 24 hours, resistant to organophosphorus and carbamate pesticides
From the text: as §5, with “A 0.5%” for “A 0.2%”, “Formulation Example-4” for “Formulation Example-3”, “of 1” for “of 5”, “ares. Then, 30 green rice leafhoppers (Nephotettix cincticeps) resistant to organophosphorus and carbamate pesticides were released.” for “ares.”

[15] = system: brown planthoppers (Nilaparvata lugens); assay: Utility Example-7: 0.5% dust on rice seedlings, brown planthoppers; format: in vivo; conditions: 1 kg per 10 ares, 24 hours
From the text: as §5, with “A 0.5%” for “A 0.2%”, “Formulation Example-4” for “Formulation Example-3”, “rice seedlings, on which 30 adult brown planthoppers (Nilaparvata lugens) were released,” for “rice seedlings”, “of 1” for “of 5”

[16] = system: houseflies (Musca domestica); assay: Mortality test with houseflies by topical application method; conditions: 24 h

CC1(C)C(C=C(Cl)Cl)C1C(=O)OCc1cccc(Oc2ccc(Cl)cc2)c1 (stereo not drawn) [Compound (1) cis-/trans- = 50:50, 3-(4-chlorophenoxy)benzyl 2,2-dimethyl-3-(2,2-dichlorovinyl)cyclopropanecarboxylate]
mortality at 0.01 µg/female [1]: 100%
mortality at 0.1 µg/female [1]: 100%
mortality at 1 µg/female [1]: 100%
LD50 ([1]; read-out: LD50 (median lethal dose), topical, green rice leafhoppers): 1.32 mg/kg
mortality at 10 ng ([1]; read-out: Pesticidal effect, green rice leafhopper): 100%
mortality at 1 µg/larva [2]: 100%
mortality at 10 µg/larva [2]: 100%
mortality at 0.001 mg ([2]; read-out: Pesticidal effect, rice stem borer): 100%
mortality at 0.0001 mg [3]: 100%
mortality at 0.0001 mg ([3]; read-out: Pesticidal effect, tobacco cutworm): 100%
mortality at 200 ppm [4]: 100%
LC50 at 48 h [5]: > 10 µg/mL
Toxicity to fish TLm, killifish [6]: > 10 ppm
LC50 at 48 h [7]: > 5 µg/mL
Toxicity to fish TLm, guppy [8]: > 5 ppm
LD50 at 168 h [9]: > 3000 mg/kg
Acute oral toxicity to rat LD50 (rat): > 3000 mg/kg
mortality at 80 ppm [10]: ≥ 90%
mortality at 80 ppm [11]: ≥ 90%
mortality [12]: not less than 90%
mortality at 13 ppm [13]: 100%
mortality [14]: not less than 90%
mortality [15]: not less than 90%
mortality at 0.5 µg/female [16]: 100%
mortality at 1 µg/female [16]: 100%
mortality at 0.001 mg ([16]; read-out: Pesticidal effect, housefly): 100%
